Data as given in the supplement of paper PMC10307832.

Experiments:
Experiment in all cases: relative viability (nuclei count vs DMSO), 5 days (fraction); higher = more cells survive
Crenolanib + OSI-027 = compound: CC1(COc2ccc3c(c2)ncn3-c2ccc3cccc(N4CCC(N)CC4)c3n2)COC1 [Crenolanib] + COc1cccc2cc(-c3nc([C@H]4CC[C@H](C(=O)O)CC4)n4ncnc(N)c34)[nH]c12 [OSI-027] (partner 0.5 µM)
Outline: (§1)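 Nuclei were stained with Hoechst during a one-step fixation (final 0.05% Triton X-100, 1% formaldehyde, 1 ug/ml Hoechst) carried out 5 days after dosing, then counted on 4× images. The cells, lung cancer lines in 1536-well plates, had been dosed by pin tool the day after seeding with one drug alone or a fixed anchor-drug dose plus five library-drug doses (not always all listed) in √10 steps. Relative viability is the nuclei count in treated wells divided by that in vehicle wells, and each value is the median of duplicate plates.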

Crenolanib + Phenformin = compound: CC1(COc2ccc3c(c2)ncn3-c2ccc3cccc(N4CCC(N)CC4)c3n2)COC1 [Crenolanib] + N=C(N)NC(=N)NCCc1ccccc1 [Phenformin] (partner 250 µM)
Outline: as §1

Tivantinib + Luminespib = compound: O=C1NC(=O)[C@@H](c2cn3c4c(cccc24)CCC3)[C@@H]1c1c[nH]c2ccccc12 [Tivantinib] + CCNC(=O)c1noc(-c2cc(C(C)C)c(O)cc2O)c1-c1ccc(CN2CCOCC2)cc1 [Luminespib] (partner 0.01 µM)
Outline: as §1

Crenolanib + Linsitinib = compound: CC1(COc2ccc3c(c2)ncn3-c2ccc3cccc(N4CCC(N)CC4)c3n2)COC1 [Crenolanib] + C[C@]1(O)C[C@@H](c2nc(-c3ccc4ccc(-c5ccccc5)nc4c3)c3c(N)nccn32)C1 [Linsitinib] (partner 1 µM)
Outline: as §1

Row | Cell Line | relative viability (Crenolanib + OSI-027; first compound 0.01 µM) | relative viability (Crenolanib + OSI-027; first compound 0.03162 µM) | relative viability (Crenolanib + OSI-027; first compound 0.1 µM) | relative viability (Crenolanib + OSI-027; first compound 0.3162 µM) | relative viability (Crenolanib + OSI-027; first compound 1 µM) | relative viability (Crenolanib + Phenformin; first compound 0.01 µM) | relative viability (Crenolanib + Phenformin; first compound 0.03162 µM) | relative viability (Crenolanib + Phenformin; first compound 0.1 µM) | relative viability (Crenolanib + Phenformin; first compound 0.3162 µM) | relative viability (Crenolanib + Phenformin; first compound 1 µM) | relative viability (Tivantinib + Luminespib; first compound 0.03162 µM) | relative viability (Tivantinib + Luminespib; first compound 0.1 µM) | relative viability (Tivantinib + Luminespib; first compound 0.3162 µM) | relative viability (Crenolanib + Linsitinib; first compound 0.01 µM) | relative viability (Crenolanib + Linsitinib; first compound 0.03162 µM) | relative viability (Crenolanib + Linsitinib; first compound 0.1 µM) | relative viability (Crenolanib + Linsitinib; first compound 0.3162 µM) | relative viability (Crenolanib + Linsitinib; first compound 1 µM) | relative viability (Tivantinib + Luminespib; first compound 0.01 µM)
1 | NCI-H2228 | 0.6 | 0.495 | 0.513 | 0.687 | 0.578 | 0.313 | 0.487 | 0.324 | 0.388 | 0.317 | 0.152 | 0.168 | 0.125 | 0.762 | 0.591 | 0.565 | 0.691 | 0.729 | –
2 | CAL-12T | 0.844 | 0.634 | 0.643 | 0.712 | 0.693 | 0.533 | 0.575 | 0.545 | 0.598 | 0.538 | 0.756 | 0.43 | 0.259 | 0.967 | 0.7 | 0.768 | 0.869 | 0.846 | 0.506
3 | NCI-H596 | 0.866 | 0.84 | 0.696 | 0.703 | 0.731 | 0.691 | 0.806 | 0.72 | 0.733 | 0.737 | 1.01 | 1.08 | 0.935 | 1.01 | 0.994 | 0.97 | 0.961 | 1.18 | 1.01
